Data on 15 compounds can be found in patent publication US20240109917A1 (ACTELION PHARMACEUTICALS LTD, priority 2020, published 2024).

Where two headings read alike, the source gives them in different places. Where only a bound is given, the exact number is not on record here.

The target in assay [1] is VEGFR2, unphosphorylated (Homo sapiens (Human), UniProt P35968). The assay is described as follows: VEGFR ADP GLO Assay. The format is biochemical.
Assay [2] concerns the target Tb-labeled inactive PDGFRβ (Homo sapiens (Human), UniProt P09619). The assay is described as follows: PDGFRβ LanthaScreen Assay. The format is binding. Conditions: read-out: PDGFR Lantha IC50. For orientation: In TR-FRET formats the signal depends on donor and acceptor labels being close together.
The target of assay [3] is PDGFRβ (Rattus norvegicus (Rat), UniProt Q05030). As to the kind of experiment: PDGFRβ Cellular Assay (PDGFRb P-Y751 HTRF in A10 cells stimulated with PDGF-BB). The format is cell-based. A digest of the protocol:
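Phospho-Y751 PDGFRβ was measured by HTRF in lysates of A10 rat cells. Cells received compound for 3 hours before PDGF-BB stimulation (100 ng/mL working stock).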

VEGFR2, unphosphorylated, sequence (P35968 20-1356): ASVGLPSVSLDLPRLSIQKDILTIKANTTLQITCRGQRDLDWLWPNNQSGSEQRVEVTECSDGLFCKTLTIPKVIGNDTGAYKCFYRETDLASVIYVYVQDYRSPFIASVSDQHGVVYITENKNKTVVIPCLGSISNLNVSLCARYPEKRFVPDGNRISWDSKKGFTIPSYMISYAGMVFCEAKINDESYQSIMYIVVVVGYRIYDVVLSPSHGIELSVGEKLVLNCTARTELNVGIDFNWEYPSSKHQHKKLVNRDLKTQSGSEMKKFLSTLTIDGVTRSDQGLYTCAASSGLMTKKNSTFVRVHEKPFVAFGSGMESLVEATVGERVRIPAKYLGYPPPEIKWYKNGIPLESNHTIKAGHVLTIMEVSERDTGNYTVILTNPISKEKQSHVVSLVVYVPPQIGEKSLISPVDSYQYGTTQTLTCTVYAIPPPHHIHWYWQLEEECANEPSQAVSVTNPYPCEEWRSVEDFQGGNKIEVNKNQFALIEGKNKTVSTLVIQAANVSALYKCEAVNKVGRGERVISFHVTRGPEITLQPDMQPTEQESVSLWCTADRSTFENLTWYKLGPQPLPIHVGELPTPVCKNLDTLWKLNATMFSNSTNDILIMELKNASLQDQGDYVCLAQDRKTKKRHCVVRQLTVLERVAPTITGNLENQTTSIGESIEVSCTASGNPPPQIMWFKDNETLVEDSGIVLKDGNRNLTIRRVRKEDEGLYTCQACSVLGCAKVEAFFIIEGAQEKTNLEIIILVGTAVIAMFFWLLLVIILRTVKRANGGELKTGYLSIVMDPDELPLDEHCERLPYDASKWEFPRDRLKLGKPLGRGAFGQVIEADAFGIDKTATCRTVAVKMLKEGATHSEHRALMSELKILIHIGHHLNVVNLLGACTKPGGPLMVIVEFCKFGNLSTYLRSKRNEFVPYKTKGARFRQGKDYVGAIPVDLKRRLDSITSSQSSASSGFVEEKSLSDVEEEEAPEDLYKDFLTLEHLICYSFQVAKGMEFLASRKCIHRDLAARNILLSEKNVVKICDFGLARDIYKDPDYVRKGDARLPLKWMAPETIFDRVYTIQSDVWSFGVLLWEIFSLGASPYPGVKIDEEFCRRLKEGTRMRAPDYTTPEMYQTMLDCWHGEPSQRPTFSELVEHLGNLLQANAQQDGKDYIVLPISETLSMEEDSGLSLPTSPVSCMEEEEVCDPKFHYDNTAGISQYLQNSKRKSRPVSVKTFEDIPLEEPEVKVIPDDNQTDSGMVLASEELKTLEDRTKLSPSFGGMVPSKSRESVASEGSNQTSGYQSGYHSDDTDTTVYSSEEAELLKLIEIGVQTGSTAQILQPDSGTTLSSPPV
PDGFRβ, sequence (Q05030 32-1097): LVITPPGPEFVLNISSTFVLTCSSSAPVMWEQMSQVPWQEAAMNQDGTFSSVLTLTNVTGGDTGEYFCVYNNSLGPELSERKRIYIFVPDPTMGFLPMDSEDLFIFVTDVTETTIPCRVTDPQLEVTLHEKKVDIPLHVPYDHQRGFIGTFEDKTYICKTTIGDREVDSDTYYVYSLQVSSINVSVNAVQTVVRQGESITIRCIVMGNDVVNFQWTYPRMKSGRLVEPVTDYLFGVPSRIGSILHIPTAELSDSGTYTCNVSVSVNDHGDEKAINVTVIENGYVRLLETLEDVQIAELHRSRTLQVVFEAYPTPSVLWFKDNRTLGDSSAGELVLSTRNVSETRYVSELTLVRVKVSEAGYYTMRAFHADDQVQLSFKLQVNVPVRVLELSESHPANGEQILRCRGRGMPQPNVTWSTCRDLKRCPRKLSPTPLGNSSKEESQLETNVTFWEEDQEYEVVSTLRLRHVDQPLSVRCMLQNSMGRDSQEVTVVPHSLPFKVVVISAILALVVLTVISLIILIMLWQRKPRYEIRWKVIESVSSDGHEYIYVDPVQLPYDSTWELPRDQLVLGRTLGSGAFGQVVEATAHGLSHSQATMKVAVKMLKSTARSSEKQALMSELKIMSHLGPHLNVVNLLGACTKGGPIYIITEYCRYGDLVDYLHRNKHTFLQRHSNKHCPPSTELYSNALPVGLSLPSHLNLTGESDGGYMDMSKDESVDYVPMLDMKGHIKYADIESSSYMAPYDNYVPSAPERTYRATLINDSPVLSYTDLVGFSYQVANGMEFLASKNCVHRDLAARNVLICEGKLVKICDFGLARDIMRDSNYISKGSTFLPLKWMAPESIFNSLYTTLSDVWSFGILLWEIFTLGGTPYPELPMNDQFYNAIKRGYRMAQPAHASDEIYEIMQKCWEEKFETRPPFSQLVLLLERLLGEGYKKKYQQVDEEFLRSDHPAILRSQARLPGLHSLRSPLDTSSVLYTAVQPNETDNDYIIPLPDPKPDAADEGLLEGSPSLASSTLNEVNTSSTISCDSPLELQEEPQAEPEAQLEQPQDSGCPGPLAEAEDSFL
Tb-labeled inactive PDGFRβ, sequence (P09619 33-1106): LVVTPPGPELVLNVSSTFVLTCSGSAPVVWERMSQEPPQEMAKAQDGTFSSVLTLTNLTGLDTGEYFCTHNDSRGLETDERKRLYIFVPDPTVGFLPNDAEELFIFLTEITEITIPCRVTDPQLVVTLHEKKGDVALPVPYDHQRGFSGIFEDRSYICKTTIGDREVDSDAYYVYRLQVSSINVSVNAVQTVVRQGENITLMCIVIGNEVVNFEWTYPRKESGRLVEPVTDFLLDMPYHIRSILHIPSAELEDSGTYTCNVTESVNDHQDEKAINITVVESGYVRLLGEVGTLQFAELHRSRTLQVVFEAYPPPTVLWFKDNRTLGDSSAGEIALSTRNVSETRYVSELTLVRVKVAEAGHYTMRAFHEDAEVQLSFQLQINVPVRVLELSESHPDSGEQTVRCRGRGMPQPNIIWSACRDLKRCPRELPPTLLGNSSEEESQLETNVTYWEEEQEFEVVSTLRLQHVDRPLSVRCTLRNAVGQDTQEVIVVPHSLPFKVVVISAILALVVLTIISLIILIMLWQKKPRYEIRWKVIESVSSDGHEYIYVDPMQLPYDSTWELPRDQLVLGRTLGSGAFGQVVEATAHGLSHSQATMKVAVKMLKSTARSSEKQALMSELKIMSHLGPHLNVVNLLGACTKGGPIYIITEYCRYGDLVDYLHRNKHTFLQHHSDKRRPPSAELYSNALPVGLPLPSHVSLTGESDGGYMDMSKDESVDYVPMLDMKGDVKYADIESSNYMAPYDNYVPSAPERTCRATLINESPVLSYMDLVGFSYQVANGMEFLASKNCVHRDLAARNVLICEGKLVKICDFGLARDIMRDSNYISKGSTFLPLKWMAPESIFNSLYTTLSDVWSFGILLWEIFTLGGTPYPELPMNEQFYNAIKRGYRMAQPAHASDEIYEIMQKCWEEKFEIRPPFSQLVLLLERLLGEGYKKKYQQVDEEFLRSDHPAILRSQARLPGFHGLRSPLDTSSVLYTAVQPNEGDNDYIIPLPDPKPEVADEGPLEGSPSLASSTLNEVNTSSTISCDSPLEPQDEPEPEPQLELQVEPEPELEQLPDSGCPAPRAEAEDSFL

For orientation: IC50 means the concentration that gives 50% inhibition. As to `Cc1ncc(C(=O)N2CC2CNC(C)(C)C)cc1NC(=O)c1cnn2cc(-c3cccc4c3cnn4C)sc12` (stereo not drawn) [Example 239, N-(5-(2-((tert-butylamino)methyl)aziridine-1-carbonyl)-2-methylpyridin-3-yl)-2-(1-methyl-1H-indazol-4-yl)pyrazolo[5,1-b]thiazole-7-carboxamide], the IC50 is over 2500 nM in assay [1], 78.7 nM in assay [2] and 349 nM in assay [3] (read-out: PDGFR Cellular IC50).
For the compound `Cc1ncc(C(=O)NCCN2CCCC2(C)C)cc1NC(=O)c1cnn2cc(-c3cccc4c3cnn4C)sc12` [Example 240, N-(5-((2-(2,2-dimethylpyrrolidin-1-yl)ethyl)carbamoyl)-2-methylpyridin-3-yl)-2-(1-methyl-1H-indazol-4-yl)pyrazolo[5,1-b]thiazole-7-carboxamide], the concentration for half-maximal inhibition (IC50) is over 2500 nM in assay [1], 2 nM in assay [2] and 11.8 nM in assay [3] (read-out: PDGFR Cellular IC50).
With `Cc1ncc(NC(=O)CCN2CCCC2(C)C)cc1NC(=O)c1cnn2cc(-c3cccc4c3cnn4C)sc12` [Example 241, N-(5-(3-(2,2-dimethylpyrrolidin-1-yl)propanamido)-2-methylpyridin-3-yl)-2-(1-methyl-1H-indazol-4-yl)pyrazolo[5,1-b]thiazole-7-carboxamide], the figures for the IC50 in assay [1], in assay [2] and in assay [3] (read-out: PDGFR Cellular IC50) were over 2500 nM, 0.7 nM and 2.7 nM, respectively.
Take `COc1ncccc1-c1cn2ncc(C(=O)Nc3cc(C(=O)NCCN4CCC[C@H]4C)cnc3C)c2s1` [Example 242, (R)-2-(2-methoxypyridin-3-yl)-N-(2-methyl-5-((2-(2-methylpyrrolidin-1-yl)ethyl)carbamoyl)pyridin-3-yl)pyrazolo[5,1-b]thiazole-7-carboxamide]: the figures for the IC50 in assay [1], in assay [2] and in assay [3] (read-out: PDGFR Cellular IC50) were over 7500 nM, 1.7 nM and 6.1 nM, respectively.
Consider `Cc1ncc(NC(=O)OC[C@@H]2CCCN2C)cc1NC(=O)c1cnn2cc(-c3cnn(C)c3)sc12` [Example 243, (S)-(1-methylpyrrolidin-2-yl)methyl (6-methyl-5-(2-(1-methyl-1H-pyrazol-4-yl)pyrazolo[5,1-b]thiazole-7-carboxamido)pyridin-3-yl)carbamate], for which the IC50 in assay [1] is over 7500 nM; in assay [2], 13.1 nM; in assay [3] (PDGFR Cellular IC50), 20.3 nM.
As for `Cc1ncc(NC(=O)OC[C@H]2CCCN2C)cc1NC(=O)c1cnn2cc(-c3cnn(C)c3)sc12` [Example 244, (R)-(1-methylpyrrolidin-2-yl)methyl (6-methyl-5-(2-(1-methyl-1H-pyrazol-4-yl)pyrazolo[5,1-b]thiazole-7-carboxamido)pyridin-3-yl)carbamate], the concentration for half-maximal inhibition (IC50) in assay [1] was over 7500 nM; in assay [2], 15.3 nM; in assay [3] (PDGFR Cellular IC50), 22.9 nM.
`Cc1ncc(NC(=O)OC[C@@H]2CCCN2C(C)C)cc1NC(=O)c1cnn2cc(-c3cnn(C)c3)sc12` [Example 245, (S)-(1-isopropylpyrrolidin-2-yl)methyl (6-methyl-5-(2-(1-methyl-1H-pyrazol-4-yl)pyrazolo[5,1-b]thiazole-7-carboxamido)pyridin-3-yl)carbamate]: the IC50 in assay [1] is over 7500 nM; in assay [2], 10.8 nM; in assay [3] (read-out: PDGFR Cellular IC50), 18.1 nM.
In the case of `Cc1ncc(NC(=O)OCCN2CCCC2)cc1NC(=O)c1cnn2cc(-c3cnn(C)c3)sc12` [Example 246, 2-(pyrrolidin-1-yl)ethyl (6-methyl-5-(2-(1-methyl-1H-pyrazol-4-yl)pyrazolo[5,1-b]thiazole-7-carboxamido)pyridin-3-yl)carbamate], the half-maximal inhibitory concentration (IC50) was over 7500 nM in assay [1], 64.7 nM in assay [2] and 113 nM in assay [3] (read-out: PDGFR Cellular IC50).
Consider `Cc1ncc(NC(=O)OCCN2CCCC2(C)C)cc1NC(=O)c1cnn2cc(-c3cnn(C)c3)sc12` [Example 247, 2-(2,2-dimethylpyrrolidin-1-yl)ethyl (6-methyl-5-(2-(1-methyl-1H-pyrazol-4-yl)pyrazolo[5,1-b]thiazole-7-carboxamido)pyridin-3-yl)carbamate], for which the results for the IC50 in assay [1], in assay [2] and in assay [3] (read-out: PDGFR Cellular IC50) were over 7500 nM, 19.3 nM and 18.3 nM, respectively.
Regarding `Cc1ncc(NC(=O)OCC(C)N2CCCC2)cc1NC(=O)c1cnn2cc(-c3cnn(C)c3)sc12` (stereo not drawn) [Example 248, 2-(pyrrolidin-1-yl)propyl (6-methyl-5-(2-(1-methyl-1H-pyrazol-4-yl)pyrazolo[5,1-b]thiazole-7-carboxamido)pyridin-3-yl)carbamate], the results for the half-maximal inhibitory concentration (IC50) in assay [1], in assay [2] and in assay [3] (read-out: PDGFR Cellular IC50) were over 7500 nM, 10.2 nM and 31.3 nM, respectively.
Regarding `Cc1ncc(NC(=O)OCC(C)(C)N2CCCC2)cc1NC(=O)c1cnn2cc(-c3cnn(C)c3)sc12` [Example 249, 2-methyl-2-(pyrrolidin-1-yl)propyl (6-methyl-5-(2-(1-methyl-1H-pyrazol-4-yl)pyrazolo[5,1-b]thiazole-7-carboxamido)pyridin-3-yl)carbamate], the half-inhibitory concentration (IC50) in assay [1] was over 7500 nM; in assay [2] it was 6.5 nM; in assay [3] (read-out: PDGFR Cellular IC50), 59.8 nM.
With `Cc1ncc(NC(=O)OCCN2CC3CCC2C3)cc1NC(=O)c1cnn2cc(-c3cnn(C)c3)sc12` (stereo not drawn) [Example 250, 2-(2-azabicyclo[2.2.1]heptan-2-yl)ethyl (6-methyl-5-(2-(1-methyl-1H-pyrazol-4-yl)pyrazolo[5,1-b]thiazole-7-carboxamido)pyridin-3-yl)carbamate], the values for the IC50 in assay [1], in assay [2] and in assay [3] (read-out: PDGFR Cellular IC50) were over 7500 nM, 75.2 nM and 299 nM, respectively.
Consider `Cc1ncc(NC(=O)OCCN(C)C2CCCCC2)cc1NC(=O)c1cnn2cc(-c3cnn(C)c3)sc12` [Example 251, 2-(cyclohexyl(methyl)amino)ethyl (6-methyl-5-(2-(1-methyl-1H-pyrazol-4-yl)pyrazolo[5,1-b]thiazole-7-carboxamido)pyridin-3-yl)carbamate], for which the figures for the IC50 in assay [1], in assay [2] and in assay [3] (read-out: PDGFR Cellular IC50) were over 7500 nM, 33.6 nM and 28.4 nM, respectively.
Take `Cc1ncc(NC(=O)OC2CN(C(C)(C)C)C2)cc1NC(=O)c1cnn2cc(-c3cnn(C)c3)sc12` [Example 252, 1-(tert-butyl)azetidin-3-yl (6-methyl-5-(2-(1-methyl-1H-pyrazol-4-yl)pyrazolo[5,1-b]thiazole-7-carboxamido)pyridin-3-yl)carbamate]: the values for the IC50 in assay [1], in assay [2] and in assay [3] (read-out: PDGFR Cellular IC50) were over 7500 nM, 53.2 nM and 79.7 nM, respectively.
As for `COc1ncccc1-c1cn2ncc(C(=O)Nc3cc(NC(=O)OC[C@@H]4CCCN4C)cnc3C)c2s1` [Example 253, (S)-(1-methylpyrrolidin-2-yl)methyl (5-(2-(2-methoxypyridin-3-yl)pyrazolo[5,1-b]thiazole-7-carboxamido)-6-methylpyridin-3-yl)carbamate], the figures for the IC50 in assay [1], in assay [2] and in assay [3] (read-out: PDGFR Cellular IC50) were over 7500 nM, 1.8 nM and 4.4 nM, respectively.
